Laboratory results from PMC5218480 (PLoS ONE, 2017).

Test system: MV-4-11 cells
Assay: Gene expression microarray analysis (Affymetrix PrimeView) and GSEA
Type: cell-based, human
Parameters: RFU PODN (11730768_x_at) / Fold change /veh PODN (11730768_x_at) / RFU LINC00158 (11744669_a_at) / Fold change /veh LINC00158 (11744669_a_at) / RFU DUSP10 (11751237_a_at) / Fold change /veh DUSP10 (11751237_a_at) / RFU ID3 (11757404_x_at) / Fold change /veh ID3 (11757404_x_at) / RFU PLEKHG5 (11737974_s_at) / Fold change /veh PLEKHG5 (11737974_s_at) / RFU LRRC4B (11730491_at) / Fold change /veh LRRC4B (11730491_at) / RFU GIMAP4 (11747438_a_at) / Fold change /veh GIMAP4 (11747438_a_at) / RFU KRT8 (11758183_x_at) / Fold change /veh KRT8 (11758183_x_at) / RFU CNN1 (11734310_a_at) / Fold change /veh CNN1 (11734310_a_at) / RFU VPS37D (11726825_at) / Fold change /veh VPS37D (11726825_at) / RFU C10orf10 (11716522_x_at) / Fold change /veh C10orf10 (11716522_x_at) / RFU KIR2DL2 /// KIR2DL4 /// KIR2DL5A /// KIR2DL5B /// KIR2DS1 /// KIR2DS2 /// KIR2DS3 /// KIR2DS4 /// KIR3DL3 /// KIR3DL3 /// KIR3DS1 (11738374_at) / Fold change /veh KIR2DL2 /// KIR2DL4 /// KIR2DL5A /// KIR2DL5B /// KIR2DS1 /// KIR2DS2 /// KIR2DS3 /// KIR2DS4 /// KIR3DL3 /// KIR3DL3 /// KIR3DS1 (11738374_at) / RFU C1QL1 (11718748_at) / Fold change /veh C1QL1 (11718748_at) / RFU TMPRSS4 (11747572_a_at) / Fold change /veh TMPRSS4 (11747572_a_at) / RFU HAMP (11756126_x_at) / Fold change /veh HAMP (11756126_x_at) / RFU RNFT2 (11725882_a_at) / Fold change /veh RNFT2 (11725882_a_at) / RFU NR4A2 (11747474_a_at) / Fold change /veh NR4A2 (11747474_a_at) / RFU ABCC12 (11746883_a_at) / Fold change /veh ABCC12 (11746883_a_at) / RFU TMEM136 (11760407_x_at) / Fold change /veh TMEM136 (11760407_x_at) / RFU CLDN22 /// WWC2 (11732394_at) / Fold change /veh CLDN22 /// WWC2 (11732394_at) / RFU HLA-DPB1 (11760878_x_at) / Fold change /veh HLA-DPB1 (11760878_x_at) / RFU SPINT1 (11716480_a_at) / Fold change /veh SPINT1 (11716480_a_at) / RFU GAP43 (11754022_s_at) / Fold change /veh GAP43 (11754022_s_at) / RFU A4GNT (11735810_at) / Fold change /veh A4GNT (11735810_at) / RFU PRB3 (11715151_x_at) / Fold change /veh PRB3 (11715151_x_at) / RFU TUBB4B (11761932_at) / Fold change /veh TUBB4B (11761932_at) / RFU CAPN14 (11732068_a_at) / Fold change /veh CAPN14 (11732068_a_at) / RFU TMCC2 (11721928_a_at) / Fold change /veh TMCC2 (11721928_a_at) / RFU IRGQ (11745062_a_at) / Fold change /veh IRGQ (11745062_a_at) / RFU FAM174B (11720279_a_at) / Fold change /veh FAM174B (11720279_a_at) / RFU TMPRSS4 (11748680_a_at) / Fold change /veh TMPRSS4 (11748680_a_at) / RFU FAM212B (11763350_a_at) / Fold change /veh FAM212B (11763350_a_at) / RFU PLEKHG5 (11743358_a_at) / Fold change /veh PLEKHG5 (11743358_a_at) / RFU ZSCAN30 (11745921_a_at) / Fold change /veh ZSCAN30 (11745921_a_at) / RFU CMKLR1 (11741424_a_at) / Fold change /veh CMKLR1 (11741424_a_at) / RFU LOC101060620 /// MAPK8IP1 (11723275_at) / Fold change /veh LOC101060620 /// MAPK8IP1 (11723275_at) / RFU SPTSSB (11747773_x_at) / Fold change /veh SPTSSB (11747773_x_at) / RFU PRSS12 (11739890_at) / Fold change /veh PRSS12 (11739890_at) / RFU BIN1 (11741810_x_at) / Fold change /veh BIN1 (11741810_x_at) / RFU WNT11 (11732464_a_at) / Fold change /veh WNT11 (11732464_a_at) / RFU C10orf10 (11716521_a_at) / Fold change /veh C10orf10 (11716521_a_at) / RFU C5orf56 (11738089_at) / Fold change /veh C5orf56 (11738089_at) / RFU CYB561 (11721691_x_at) / Fold change /veh CYB561 (11721691_x_at) / RFU ANKRD19P (11752326_a_at) / Fold change /veh ANKRD19P (11752326_a_at) / RFU OR2T12 /// OR2T33 /// OR2T8 (11738714_s_at) / Fold change /veh OR2T12 /// OR2T33 /// OR2T8 (11738714_s_at) / RFU VCAN (11748164_a_at) / Fold change /veh VCAN (11748164_a_at) / RFU JSRP1 (11732532_at) / Fold change /veh JSRP1 (11732532_at) / RFU KRTAP10-11 (11738290_x_at) / Fold change /veh KRTAP10-11 (11738290_x_at) / RFU MYO3A (11730013_a_at) / Fold change /veh MYO3A (11730013_a_at) / RFU EBF3 (11725865_a_at) / Fold change /veh EBF3 (11725865_a_at) / RFU CAMK2N1 (11719241_x_at) / Fold change /veh CAMK2N1 (11719241_x_at) / RFU C5orf56 (11738088_a_at) / Fold change /veh C5orf56 (11738088_a_at) / RFU OLFML3 (11715873_a_at) / Fold change /veh OLFML3 (11715873_a_at) / RFU LOC100653217 /// NTM (11731650_a_at) / Fold change /veh LOC100653217 /// NTM (11731650_a_at) / RFU MAPK11 (11762145_a_at) / Fold change /veh MAPK11 (11762145_a_at) / RFU FIZ1 (11724087_x_at) / Fold change /veh FIZ1 (11724087_x_at) / RFU OASL (11726364_x_at) / Fold change /veh OASL (11726364_x_at) / RFU SOX15 (11748057_x_at) / Fold change /veh SOX15 (11748057_x_at) / RFU CD79A (11719716_a_at) / Fold change /veh CD79A (11719716_a_at) / RFU HIST1H1D (11736915_at) / Fold change /veh HIST1H1D (11736915_at) / RFU CASKIN2 (11723855_a_at) / Fold change /veh CASKIN2 (11723855_a_at) / RFU LOC730098 (11760151_x_at) / Fold change /veh LOC730098 (11760151_x_at) / RFU OR4N2 (11742367_at) / Fold change /veh OR4N2 (11742367_at) / RFU PRRT2 (11749266_a_at) / Fold change /veh PRRT2 (11749266_a_at) / RFU SNX32 (11753110_a_at) / Fold change /veh SNX32 (11753110_a_at) / RFU CDHR5 (11726645_a_at) / Fold change /veh CDHR5 (11726645_a_at) / RFU RCAN1 (11760418_a_at) / Fold change /veh RCAN1 (11760418_a_at) / RFU FAM167A (11723789_a_at) / Fold change /veh FAM167A (11723789_a_at) / RFU FAM26E (11764081_at) / Fold change /veh FAM26E (11764081_at) / RFU ISYNA1 (11749810_s_at) / Fold change /veh ISYNA1 (11749810_s_at) / RFU ACY1 (11761880_at) / Fold change /veh ACY1 (11761880_at) / RFU 11764098_at / Fold change /veh 11764098_at / RFU SAMD14 (11745864_x_at) / Fold change /veh SAMD14 (11745864_x_at) / RFU NPB (11741838_a_at) / Fold change /veh NPB (11741838_a_at) / RFU TMPRSS6 (11731388_a_at) / Fold change /veh TMPRSS6 (11731388_a_at) / RFU KRTAP10-2 (11738614_at) / Fold change /veh KRTAP10-2 (11738614_at) / RFU ARHGAP8 /// PRR5-ARHGAP8 (11727945_x_at) / Fold change /veh ARHGAP8 /// PRR5-ARHGAP8 (11727945_x_at) / RFU KRTAP5-7 /// NADSYN1 (11734609_at) / Fold change /veh KRTAP5-7 /// NADSYN1 (11734609_at) / RFU RASL12 (11751679_a_at) / Fold change /veh RASL12 (11751679_a_at) / RFU CDKN2B (11736163_a_at) / Fold change /veh CDKN2B (11736163_a_at) / RFU PRF1 (11729649_at) / Fold change /veh PRF1 (11729649_at) / RFU, ZNF638 /// ZNF638-IT1 / Fold change vs veh, ZNF638 /// ZNF638-IT1 / RFU, PANK3 / Fold change vs veh, PANK3 / RFU, SH3YL1 / Fold change vs veh, SH3YL1 / RFU, ZEB2 / Fold change vs veh, ZEB2 / RFU, NRIP1 / Fold change vs veh, NRIP1 / RFU, PTTG1IP / Fold change vs veh, PTTG1IP / RFU, CAPN2 / Fold change vs veh, CAPN2 / RFU, MED14 / Fold change vs veh, MED14 / RFU, SNORA58 / Fold change vs veh, SNORA58 / RFU, C1orf63 / Fold change vs veh, C1orf63 / RFU, LRRFIP1 / Fold change vs veh, LRRFIP1 / RFU, NDUFAF7 / Fold change vs veh, NDUFAF7 / RFU, SLC12A2 / Fold change vs veh, SLC12A2 / RFU, IBTK / Fold change vs veh, IBTK / RFU, ESF1 / Fold change vs veh, ESF1 / Fold change vs veh, TMEM50B / RFU, TAOK1 / Fold change vs veh, TAOK1 / RFU, ACBD3 / Fold change vs veh, ACBD3 / RFU, TMA16 / Fold change vs veh, TMA16 / RFU, RWDD3 / Fold change vs veh, RWDD3 / RFU, BCAT1 / Fold change vs veh, BCAT1 / RFU, EDEM3 / Fold change vs veh, EDEM3 / RFU, TMEM33 / Fold change vs veh, TMEM33 / RFU, WDR75 / Fold change vs veh, WDR75 / RFU, AHCTF1 / Fold change vs veh, AHCTF1 / RFU, TFRC / Fold change vs veh, TFRC / RFU, ZDHHC17 / Fold change vs veh, ZDHHC17 / RFU, NOM1 / Fold change vs veh, NOM1 / RFU, ARL8B / Fold change vs veh, ARL8B / RFU, ZBTB11 / Fold change vs veh, ZBTB11 / RFU, TAMM41 / Fold change vs veh, TAMM41 / RFU, KIAA1704 /// LOC100996395 / Fold change vs veh, KIAA1704 /// LOC100996395 / RFU, ING1 / Fold change vs veh, ING1 / RFU, TRMT61B / Fold change vs veh, TRMT61B / RFU, FUBP3 / Fold change vs veh, FUBP3 / RFU, TP53 / Fold change vs veh, TP53 / RFU, TNKS2 / Fold change vs veh, TNKS2 / RFU, ZFP14 / Fold change vs veh, ZFP14 / RFU, ACTR2 / Fold change vs veh, ACTR2 / RFU, PPP3R1 / Fold change vs veh, PPP3R1 / RFU, PIK3R1 / Fold change vs veh, PIK3R1 / RFU, HNRNPA1 / Fold change vs veh, HNRNPA1 / RFU, RNF170 / Fold change vs veh, RNF170 / RFU, ZNF28 / Fold change vs veh, ZNF28 / RFU, RNGTT / Fold change vs veh, RNGTT / RFU, OGT / Fold change vs veh, OGT / RFU, BRD1 / Fold change vs veh, BRD1 / RFU, MARS / Fold change vs veh, MARS / RFU, ZNF655 / Fold change vs veh, ZNF655 / RFU, FAHD1 / Fold change vs veh, FAHD1 / RFU, BDP1 / Fold change vs veh, BDP1 / RFU, LRRCC1 / Fold change vs veh, LRRCC1 / RFU, ARID1A / Fold change vs veh, ARID1A / RFU, ZNF146 / Fold change vs veh, ZNF146 / RFU, ZNF330 / Fold change vs veh, ZNF330 / RFU, GPN3 / Fold change vs veh, GPN3 / RFU, C9orf123 / Fold change vs veh, C9orf123 / RFU, N4BP2L2 / Fold change vs veh, N4BP2L2 / RFU, ARFIP1 / Fold change vs veh, ARFIP1 / RFU, FAM179B / Fold change vs veh, FAM179B / RFU, BCL10 / Fold change vs veh, BCL10 / RFU, UHRF1BP1L / Fold change vs veh, UHRF1BP1L / RFU, BET1 / Fold change vs veh, BET1 / RFU, CNOT2 / Fold change vs veh, CNOT2 / RFU, ZNF268 / Fold change vs veh, ZNF268 / Fold change vs veh, ZNF507 / RFU, DGCR2 / Fold change vs veh, DGCR2 / RFU, WDSUB1 / Fold change vs veh, WDSUB1 / Fold change vs veh, HSP90B1 /// MIR3652 / RFU, ADSS / Fold change vs veh, ADSS / RFU, GK / Fold change vs veh, GK / RFU, ZNF148 / Fold change vs veh, ZNF148 / RFU, TAF9 / Fold change vs veh, TAF9 / RFU, SLC1A5 / Fold change vs veh, SLC1A5 / RFU, SLMO2 / Fold change vs veh, SLMO2 / RFU, ABCC4 / Fold change vs veh, ABCC4 / RFU, LOC101060439 /// RAP1B / Fold change vs veh, LOC101060439 /// RAP1B / RFU, RFX7 / Fold change vs veh, RFX7 / RFU, GTPBP10 / Fold change vs veh, GTPBP10 / RFU, CNEP1R1 / Fold change vs veh, CNEP1R1 / RFU, BIVM-ERCC5 /// ERCC5 / Fold change vs veh, BIVM-ERCC5 /// ERCC5 / RFU, ILF3 / Fold change vs veh, ILF3 / RFU 11762660_at / Fold change /veh 11762660_at / RFU VCAN (11757783_s_at) / Fold change /veh VCAN (11757783_s_at) / RFU DDX43 (11728927_at) / Fold change /veh DDX43 (11728927_at) / RFU KRT8 (11758188_x_at) / Fold change /veh KRT8 (11758188_x_at) / RFU NKD1 (11759106_at) / Fold change /veh NKD1 (11759106_at) / RFU SRD5A1 (11742802_a_at) / Fold change /veh SRD5A1 (11742802_a_at) / RFU TPSAB1 /// TPSB2 (11721975_s_at) / Fold change /veh TPSAB1 /// TPSB2 (11721975_s_at) / RFU GSTM3 (11746129_a_at) / Fold change /veh GSTM3 (11746129_a_at) / RFU IL23R (11737362_x_at) / Fold change /veh IL23R (11737362_x_at) / RFU TMEM51 (11727254_a_at) / Fold change /veh TMEM51 (11727254_a_at) / RFU PIWIL2 (11732686_x_at) / Fold change /veh PIWIL2 (11732686_x_at) / RFU ORM1 (11744905_x_at) / Fold change /veh ORM1 (11744905_x_at) / RFU CCDC152 (11743942_at) / Fold change /veh CCDC152 (11743942_at) / RFU ECM1 (11717891_a_at) / Fold change /veh ECM1 (11717891_a_at) / RFU IL23R (11748794_a_at) / Fold change /veh IL23R (11748794_a_at) / RFU TNFAIP8L3 (11732012_x_at) / Fold change /veh TNFAIP8L3 (11732012_x_at) / RFU MBOAT4 (11741988_at) / Fold change /veh MBOAT4 (11741988_at) / RFU 11764193_at / Fold change /veh 11764193_at / RFU TMEM53 (11763286_at) / Fold change /veh TMEM53 (11763286_at) / RFU MAGEB2 (11727129_at) / Fold change /veh MAGEB2 (11727129_at) / RFU TMEM200A (11744735_a_at) / Fold change /veh TMEM200A (11744735_a_at) / RFU CCDC152 (11751479_a_at) / Fold change /veh CCDC152 (11751479_a_at) / RFU FAM211A (11726209_a_at) / Fold change /veh FAM211A (11726209_a_at) / RFU RGS16 (11746705_a_at) / Fold change /veh RGS16 (11746705_a_at) / RFU VCAN (11755009_s_at) / Fold change /veh VCAN (11755009_s_at) / RFU RHOB (11743442_s_at) / Fold change /veh RHOB (11743442_s_at) / RFU RGS16 (11720943_a_at) / Fold change /veh RGS16 (11720943_a_at) / RFU RGS16 (11720944_at) / Fold change /veh RGS16 (11720944_at) / RFU, VPS4B / Fold change vs veh, VPS4B / RFU, CREB1 / Fold change vs veh, CREB1 / RFU, DNAJC13 / Fold change vs veh, DNAJC13 / RFU, GNAQ / Fold change vs veh, GNAQ / RFU, CDK5R1 / Fold change vs veh, CDK5R1 / RFU, ZRANB3 / Fold change vs veh, ZRANB3 / RFU, CUL4A / Fold change vs veh, CUL4A / RFU, CCNY / Fold change vs veh, CCNY / RFU, UFL1 / Fold change vs veh, UFL1 / RFU, COG3 / Fold change vs veh, COG3 / RFU, DIAPH2 / Fold change vs veh, DIAPH2 / RFU, SKA2 / Fold change vs veh, SKA2 / RFU, AFF3 / Fold change vs veh, AFF3 / RFU, LMF1 / Fold change vs veh, LMF1 / RFU, IPO11 / Fold change vs veh, IPO11 / RFU, DFFB / Fold change vs veh, DFFB / RFU, FOXP1 / Fold change vs veh, FOXP1 / RFU, CARD8 / Fold change vs veh, CARD8 / RFU, STRN3 / Fold change vs veh, STRN3 / RFU, ADK / Fold change vs veh, ADK / RFU, RASSF2 / Fold change vs veh, RASSF2 / RFU, WIPF1 / Fold change vs veh, WIPF1 / RFU, LARP1B / Fold change vs veh, LARP1B / RFU, RASA1 / Fold change vs veh, RASA1 / RFU, RB1 / Fold change vs veh, RB1 / RFU, PPFIA1 / Fold change vs veh, PPFIA1 / RFU, MAT2A / Fold change vs veh, MAT2A / RFU, CCT5 / Fold change vs veh, CCT5 / RFU, WDR92 / Fold change vs veh, WDR92 / RFU, CUX1 / Fold change vs veh, CUX1 / RFU, TTC7A / Fold change vs veh, TTC7A / RFU, TMEM135 / Fold change vs veh, TMEM135 / RFU, DEPTOR / Fold change vs veh, DEPTOR / RFU, CPM / Fold change vs veh, CPM / RFU, DNAJB6 / Fold change vs veh, DNAJB6 / RFU, CACNA2D3 / Fold change vs veh, CACNA2D3 / RFU, DTX4 / Fold change vs veh, DTX4 / RFU, TFCP2 / Fold change vs veh, TFCP2 / RFU, GMCL1 /// GMCL1P1 / Fold change vs veh, GMCL1 /// GMCL1P1 / RFU, AEBP2 / Fold change vs veh, AEBP2 / RFU, SNHG1 /// SNORD22 /// SNORD25 /// SNORD26 /// SNORD27 /// SNORD28 /// SNORD29 /// SNORD31 / Fold change vs veh, SNHG1 /// SNORD22 /// SNORD25 /// SNORD26 /// SNORD27 /// SNORD28 /// SNORD29 /// SNORD31 / Fold change (Aza/veh), C12orf56 (ProbeSet 11735607_a_at) / Fold change (ACY-1035/veh), C12orf56 (ProbeSet 11735607_a_at) / Fold change (Aza/veh), FGFR1OP (ProbeSet 11751329_s_at) / Fold change (ACY-1035/veh), FGFR1OP (ProbeSet 11751329_s_at) / Fold change (Aza/veh), VPS36 (ProbeSet 11739960_a_at) / Fold change (ACY-1035/veh), VPS36 (ProbeSet 11739960_a_at) / RFU SYPL1 (11715823_x_at) / Fold change /veh SYPL1 (11715823_x_at) / RFU IGFBP7 (11715501_s_at) / Fold change /veh IGFBP7 (11715501_s_at) / RFU REEP3 (11722064_at) / Fold change /veh REEP3 (11722064_at) / RFU IGLL1 (11728026_x_at) / Fold change /veh IGLL1 (11728026_x_at): dose or concentration left out as unconfirmed
Settings: ProbeSet 11758170_s_at; LIST D

**Q.** Which “Fold change vs veh, DIAPH2” value does the source give for `Nc1ccc(-c2cccs2)cc1NC(=O)c1ccc2c(c1)cc(C1CC1)n2CCN1CCOCC1` [ACY-1035] here?
**A.** 1.00
